Laboratory results: patent publication US8697739B2, “Bicyclic acetyl-CoA carboxylase inhibitors and uses thereof” (Novartis AG, priority 2010, dated 2014)

Biological target: T1, human acetyl-CoA carboxylase 2 (ACC2) (Homo sapiens, UniProt O00763)
T1 construct: The cDNA encoding amino acids 144 to 2458 of human acetyl-CoA carboxylase 2; made in house; host or cells: Sf9 insect cells (baculovirus, pFastBac1)
Assay: Acetyl-CoA carboxylase enzyme assay (malonyl-CoA formation by LC/MS/MS)
Assay type: biochemical
Conditions: recombinant human ACC2 (aa 144-2458); read-out: IC50 ACC2
Text: The cDNA encoding amino acids 144 to 2458 of human acetyl-CoA carboxylase 2 (ACC2, GenBank Accession #NM_001093) was cloned into the SalI and NotI sites of pFastBac1 (Invitrogen; Carlsbad, Calif.). The resulting plasmid was used to generate a recombinant ACC2 baculovirus that was amplified and titered according to the protocols in the Bac-to-Bac baculovirus expression system manual (Invitrogen). The titered virus was used to infect Sf9 cells grown in Ex-Cell 420 serum-free medium (JRH Biosciences; Lenexa, Kans.). At 48 hours post-infection, the cells were harvested and stored at −80° C. until purification. ACC2 was purified using ammonium sulfate precipitation and anion exchange chromatography.
The enzymatic assay was run as follows: 30 μL of reaction buffer (100 mM HEPES pH 7.5, 20 mM MgCl2, 20 mM potassium citrate, 2 mM DTT) was added to a 384-well microtiter plate followed by 2 μL of the test compound (or 100% DMSO control). ACC2 protein (10 μL of a 50 nM working solution) was added to plate, which was incubated at room temperature for 15 minutes. A 30 μL addition of substrate solution (50 μM acetyl-CoA, 120 μM ATP, 2 mM KHCO3) was used to initiate the reactions which were quenched with 6% acetic acid (40 μL). ACC catalyzed malonyl-CoA formation was detected by LC/MS/MS using a Cohesive Technologies LX Series multiplex LC/MSIMS system configured with four binary pumps (Agilent Technologies; Palo Alto, Calif.), a dual arm autosampler (Leap Technologies; Cary, N.C.), and one Quattro Micro triple quadrupole mass spectrometer (Waters, Milford, Mass.), all run by Aria Software version 1.5 (Cohesive Technologies; Franklin, Mass.). Four samples were injected (20 μL) onto four Phenosphere NEXT C18 30×2 mm 5 μm columns (Phenomenex; Torrance, Calif.), eluted by four separate pumps, running identical gradients, through a column switching manifold with the one outlet fitted to the electrospray (ESI) source. Malonyl-CoA was eluted with 5 mM ammonium acetate, pH 4.5 (Buffer A) and 100% acetonitrile (Buffer B) via a step gradient. Argon was used as the collision gas and the following species were monitored via MRM detection: malonyl-CoA (853.8>346.9), internal standard (A: [^13C3]-malonyl-CoA, 857>350). The lower limit of detection is 0.3 uM for malonyl-CoA in this assay.

T1 sequence (O00763 144-2458): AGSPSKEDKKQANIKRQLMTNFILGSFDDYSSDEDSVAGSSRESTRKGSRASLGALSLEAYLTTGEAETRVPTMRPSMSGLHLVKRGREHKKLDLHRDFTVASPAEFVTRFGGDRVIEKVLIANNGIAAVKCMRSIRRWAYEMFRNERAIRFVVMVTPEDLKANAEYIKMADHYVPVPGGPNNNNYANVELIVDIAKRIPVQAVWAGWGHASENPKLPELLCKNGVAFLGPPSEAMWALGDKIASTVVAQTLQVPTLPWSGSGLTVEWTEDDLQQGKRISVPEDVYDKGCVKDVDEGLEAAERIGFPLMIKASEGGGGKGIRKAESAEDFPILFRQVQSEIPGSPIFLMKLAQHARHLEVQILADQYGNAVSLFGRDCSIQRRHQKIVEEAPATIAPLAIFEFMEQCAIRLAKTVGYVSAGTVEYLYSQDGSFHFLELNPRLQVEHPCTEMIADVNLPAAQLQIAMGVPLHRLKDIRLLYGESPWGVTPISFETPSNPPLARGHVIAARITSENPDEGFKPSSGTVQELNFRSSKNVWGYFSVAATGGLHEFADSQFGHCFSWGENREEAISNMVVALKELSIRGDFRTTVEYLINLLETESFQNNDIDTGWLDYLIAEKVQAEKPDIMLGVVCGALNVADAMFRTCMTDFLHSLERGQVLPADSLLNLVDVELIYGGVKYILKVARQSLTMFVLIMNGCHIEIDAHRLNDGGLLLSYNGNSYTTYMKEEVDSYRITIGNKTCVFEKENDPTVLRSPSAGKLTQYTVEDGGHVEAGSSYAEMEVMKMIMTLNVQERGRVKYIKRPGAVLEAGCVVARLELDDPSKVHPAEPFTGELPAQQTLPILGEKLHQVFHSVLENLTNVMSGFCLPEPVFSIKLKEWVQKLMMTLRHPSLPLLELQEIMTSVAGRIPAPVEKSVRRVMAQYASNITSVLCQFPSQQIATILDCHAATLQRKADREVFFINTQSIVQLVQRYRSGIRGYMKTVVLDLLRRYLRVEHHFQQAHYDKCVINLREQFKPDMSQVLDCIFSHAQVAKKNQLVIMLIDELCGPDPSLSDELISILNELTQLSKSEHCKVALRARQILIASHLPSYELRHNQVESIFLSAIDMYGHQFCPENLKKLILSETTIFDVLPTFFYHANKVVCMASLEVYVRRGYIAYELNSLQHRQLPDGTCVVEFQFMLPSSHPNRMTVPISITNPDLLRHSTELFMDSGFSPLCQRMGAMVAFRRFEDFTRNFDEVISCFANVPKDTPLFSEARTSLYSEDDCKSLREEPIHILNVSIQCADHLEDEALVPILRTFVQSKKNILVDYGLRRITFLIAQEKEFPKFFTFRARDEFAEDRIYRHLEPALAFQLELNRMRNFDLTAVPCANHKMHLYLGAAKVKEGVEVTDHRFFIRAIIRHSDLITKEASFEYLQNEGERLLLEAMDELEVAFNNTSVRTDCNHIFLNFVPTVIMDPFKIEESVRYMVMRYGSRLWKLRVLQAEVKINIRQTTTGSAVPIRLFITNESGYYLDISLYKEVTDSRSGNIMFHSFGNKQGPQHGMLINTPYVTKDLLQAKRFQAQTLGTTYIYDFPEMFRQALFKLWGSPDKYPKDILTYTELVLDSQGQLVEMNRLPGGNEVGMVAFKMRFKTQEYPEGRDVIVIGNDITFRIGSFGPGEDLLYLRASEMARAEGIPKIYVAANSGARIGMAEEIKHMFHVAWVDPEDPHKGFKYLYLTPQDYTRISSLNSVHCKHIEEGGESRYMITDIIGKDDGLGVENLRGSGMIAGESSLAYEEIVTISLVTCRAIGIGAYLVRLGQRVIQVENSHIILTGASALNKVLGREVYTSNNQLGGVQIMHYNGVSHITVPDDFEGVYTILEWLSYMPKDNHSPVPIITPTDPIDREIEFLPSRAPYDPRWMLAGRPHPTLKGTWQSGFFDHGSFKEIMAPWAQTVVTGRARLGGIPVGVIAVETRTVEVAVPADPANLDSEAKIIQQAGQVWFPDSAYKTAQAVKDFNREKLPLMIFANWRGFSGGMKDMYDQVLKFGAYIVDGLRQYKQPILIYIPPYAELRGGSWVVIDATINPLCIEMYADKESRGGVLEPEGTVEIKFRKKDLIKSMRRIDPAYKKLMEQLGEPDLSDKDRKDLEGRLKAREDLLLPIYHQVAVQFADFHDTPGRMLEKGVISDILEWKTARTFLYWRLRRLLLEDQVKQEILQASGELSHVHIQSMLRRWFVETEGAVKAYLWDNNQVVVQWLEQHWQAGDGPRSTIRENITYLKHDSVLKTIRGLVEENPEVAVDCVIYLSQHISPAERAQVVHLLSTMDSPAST

SMILES: C[C@@H](NC(=O)[C@H]1CC[C@H](NS(=O)(=O)c2cnc3nc(-c4ccccc4)sc3c2)CC1)c1ccc(F)cc1 [Example 52, (1r,4R)-N-((R)-1-(4-fluorophenyl)ethyl)-4-(2-phenylthiazolo[4,5-b]pyridine-6-sulfonamido)cyclohexanecarboxamide]
- IC50: 435 nM

SMILES: C[C@@H](NC(=O)[C@H]1CC[C@H](NS(=O)(=O)c2ccc3nc(N(C)C)ccc3c2)CC1)c1ccc(F)cc1 [Example 53, (1r,4R)-4-(2-(dimethylamino)quinoline-6-sulfonamido)-N-((R)-1-(4-fluorophenyl)ethyl)cyclohexanecarboxamide]
- IC50: 93 nM

SMILES: C[C@@H](NC(=O)[C@H]1CC[C@H](NS(=O)(=O)c2ccc3nc(O)ccc3c2)CC1)c1ccc(F)cc1 [Example 54, (1r,4R)-N-((R)-1-(4-fluorophenyl)ethyl)-4-(2-hydroxyquinoline-6-sulfonamido)cyclohexanecarboxamide]
- IC50: 193 nM

SMILES: C[C@@H](NC(=O)[C@H]1CC[C@H](NS(=O)(=O)c2cnc3ccccc3c2)CC1)c1ccccc1 [Example 55, (1r,4R)-N-((R)-1-phenylethyl)-4-(quinoline-3-sulfonamido)cyclohexanecarboxamide]
- IC50: 134 nM

SMILES: CC[C@@H](NC(=O)[C@H]1CC[C@H](NS(=O)(=O)c2cnc3ccccc3c2)CC1)c1ccccc1 [Example 56, (1r,4R)-N-((R)-1-phenylpropyl)-4-(quinoline-3-sulfonamido)cyclohexanecarboxamide]
- IC50: 189 nM

SMILES: C[C@@H](NC(=O)[C@H]1CC[C@H](NS(=O)(=O)c2cnc3ccccc3c2)CC1)c1ccc(Cl)cc1 [Example 57, (1r,4R)-N-((R)-1-(4-chlorophenyl)ethyl)-4-(quinoline-3-sulfonamido)cyclohexanecarboxamide]
- IC50: 112 nM

SMILES: C[C@@H](NC(=O)[C@H]1CC[C@H](NS(=O)(=O)c2cnc3ccccc3c2)CC1)c1ccccc1F [Example 58, (1r,4R)-N-((R)-1-(2-fluorophenyl)ethyl)-4-(quinoline-3-sulfonamido)cyclohexanecarboxamide]
- IC50: 185 nM

SMILES: O=C([C@H]1CC[C@H](NS(=O)(=O)c2cnc3ccccc3c2)CC1)N1CCCCC1c1ccccc1 (stereo partly shown) [Example 59, N-((1r,4r)-4-(2-phenylpiperidine-1-carbonyl)cyclohexyl)quinoline-3-sulfonamide]
- IC50: 339 nM

SMILES: CC(C)(C)OC(=O)N1CCN(C(=O)[C@H]2CC[C@H](NS(=O)(=O)c3cnc4ccccc4c3)CC2)C(c2ccccc2)C1 (stereo partly shown) [Example 60, tert-butyl 3-phenyl-4-((1r,4r)-4-(quinoline-3-sulfonamido)cyclohexanecarbonyl)piperazine-1-carboxylate]
- IC50: 131 nM

SMILES: O=C([C@H]1CC[C@H](NS(=O)(=O)c2cnc3ccccc3c2)CC1)N1CCNCC1c1ccccc1 (stereo partly shown) [Example 61, N-((1r,4r)-4-(2-phenylpiperazine-1-carbonyl)cyclohexyl)quinoline-3-sulfonamide]
- IC50: 98 nM

SMILES: CC(NC(=O)[C@H]1CC[C@H](NS(=O)(=O)c2cnc3ccccc3c2)CC1)c1cnn(C)c1 (stereo partly shown) [Example 62, (1r,4r)-N-(1-(1-methyl-1H-pyrazol-4-yl)ethyl)-4-(quinoline-3-sulfonamido)cyclohexanecarboxamide]
- IC50: > 35000 nM

SMILES: Cc1c(C(F)(F)F)nc2cccc(S(=O)(=O)N[C@H]3CC[C@H](C(=O)N[C@H](C)c4ccc(F)cc4)CC3)n12 [Example 63, (1r,4R)-N-((R)-1-(4-fluorophenyl)ethyl)-4-(3-methyl-2-(trifluoromethyl)imidazo[1,2-a]pyridine-5-sulfonamido)cyclohexanecarboxamide]
- IC50: > 35000 nM

SMILES: C[C@@H](NC(=O)[C@H]1CC[C@H](NS(=O)(=O)c2ccc3nc(OC4COC4)ccc3c2)CC1)c1ccc(F)cc1 [Example 64, (1r,4R)-N-((R)-1-(4-fluorophenyl)ethyl)-4-(2-(oxetan-3-yloxy)quinoline-6-sulfonamido)cyclohexanecarboxamide]
- IC50: 42 nM
